Data: paper PMC5653977 (EMBO Molecular Medicine, 2017)
Where a name gives a salt, the structure may show the parent alone.

Tested on: NRG1-ERBB4 signaling
Test: Nrg1-ERBB4-PIK3R1 split TEV co-culture compound screen of the NIH Clinical Collection
Format: cell-based, human
Details: NIH Clinical Collection NCC-003 raw data; compounds ranked by Z-score; 'flagged' given instead of a Z-score

Row | Compound | Z-SCORE
1 | O=C1Nc2ccc(Cl)cc2[C@@](C#CC2CC2)(C(F)(F)F)O1 [EFAVIRENZ] | flagged
2 | COc1cccc2c1C(=O)c1c(O)c3c(c(O)c1C2=O)C[C@@](O)(C(=O)CO)C[C@@H]3O[C@H]1C[C@H](N)[C@@H](O)[C@H](C)O1 [EPIRUBICIN HYDROCHLORIDE] | flagged
3 | C=C1C[C@@H]2[C@H](CC[C@]3(C)C(=O)CC[C@@H]23)[C@@]2(C)C=CC(=O)C=C12 [EXEMESTANE] | -1.23
4 | COc1cc([C@@H]2c3cc4c(cc3[C@@H](O[C@@H]3O[C@@H]5CO[C@@H](C)O[C@H]5[C@H](O)[C@H]3O)[C@H]3COC(=O)[C@H]23)OCO4)cc(OC)c1O [Etoposide] | -2.67
5 | NC(N)=Nc1nc(CSCCC(N)=NS(N)(=O)=O)cs1 [FAMOTIDINE] | -1.65

Same assay, conditions: compound screen of the NIH Clinical Collection, sheet raw data NCC-003; compounds ranked by Z-score

Row | Compound | Z-SCORE
6 | CCN1CCN(c2cc3c(cc2F)c(=O)c(C(=O)O)cn3C2CC2)CC1 [ENROFLOXACIN] | 0.83
7 | CN(C)CCC[C@@]1(c2ccc(F)cc2)OCc2cc(C#N)ccc21 [ESCITALOPRAM OXALATE] | -0.11
8 | COC(=O)CCc1ccc(OCC(O)CNC(C)C)cc1 (stereo not drawn) [ESMOLOL HYDROCHLORIDE] | 0.38
9 | COc1ccc2[n-]c([S+]([O-])Cc3ncc(C)c(OC)c3C)nc2c1.COc1ccc2[n-]c([S+]([O-])Cc3ncc(C)c(OC)c3C)nc2c1.[Mg+2] (stereo not drawn) [ESOMEPRAZOLE Mg] | 0.45
10 | C#C[C@]1(O)CC[C@H]2[C@@H]3CCc4cc(O)ccc4[C@H]3CC[C@@]21C [ETHYNYLESTRADIOL] | 0.75
11 | O=C1[C@H](CC[C@H](O)c2ccc(F)cc2)[C@@H](c2ccc(O)cc2)N1c1ccc(F)cc1 [EZETIMIBE] | 0.64
12 | O=C(O[C@@H]1Cc2c(O)cc(O)cc2O[C@@H]1c1cc(O)c(O)c(O)c1)c1cc(O)c(O)c(O)c1 [Epigallocatechin gallate] | 1.36
13 | CC[C@]1(O)CC[C@H]2[C@@H]3CCC4=CCCC[C@@H]4[C@H]3CC[C@@]21C [Ethylestrenol] | -0.98
14 | CC(=O)OCC(CCn1cnc2cnc(N)nc21)COC(C)=O [FAMCICLOVIR] | 1.05
15 | Oc1ccc(C2CNCCc3c2cc(O)c(O)c3Cl)cc1 (stereo not drawn) [FENOLDOPAM MESYLATE] | -0.37
16 | C[N+]1(CCC(C(N)=O)(c2ccccc2)c2ccccc2)CCCCC1 [FENPIVERINIUM BROMIDE] | -0.58

Same assay, conditions: compounds at 10 μM, 24 h; PC12 split TEV assay cells co-cultured with Nrg1-expressing PC12 cells; analysed with cellHTS2

Row | Compound | Z-SCORE
17 | CC[N+](C)(C)c1cccc(O)c1 [EDROPHONIUM CHLORIDE, reference compound] | -1.53
18 | CCOC(=O)[C@H](CCc1ccccc1)N[C@@H](C)C(=O)N1CCC[C@H]1C(=O)O [ENALAPRIL MALEATE, reference compound] | 0
19 | C=C(CC)C(=O)c1ccc(OCC(=O)O)c(Cl)c1Cl [ETHACRYNIC ACID, reference compound] | -1.25
20 | Clc1ccc(COC(Cn2ccnc2)c2ccc(Cl)cc2Cl)cc1 (stereo not drawn) [Econazole Nitrate, reference compound] | -2.43
21 | CCOC(=O)CCC(=O)O[C@H]1[C@H](O[C@@H]2[C@@H](C)[C@H](O[C@H]3C[C@@](C)(OC)[C@@H](O)[C@H](C)O3)[C@@H](C)C(=O)O[C@H](CC)[C@@](C)(O)[C@H](O)[C@@H](C)C(=O)[C@H](C)C[C@@]2(C)O)O[C@H](C)C[C@@H]1N(C)C [Eryped, reference compound] | -0.38
22 | CN1CCN(C(=O)O[C@H]2c3nccnc3C(=O)N2c2ccc(Cl)cn2)CC1 [Eszopiclone, reference compound] | 0.38
23 | CC[C@@H](CO)NCCN[C@@H](CC)CO [Ethambutol, reference compound] | -0.12
24 | CCc1cc(C(N)=S)ccn1 [Ethionamide, reference compound] | 0.42
25 | CCc1cccc2c3c([nH]c12)C(CC)(CC(=O)O)OCC3 (stereo not drawn) [Etodolac, reference compound] | -0.28
26 | O=C(c1ccc(OCCN2CCCCC2)cc1)c1c(-c2ccc(O)cc2)sc2cc(O)ccc12 [Evista, reference compound] | 1.2
27 | CC(C)OC(=O)C(C)(C)Oc1ccc(C(=O)c2ccc(Cl)cc2)cc1 [FENOFIBRATE, reference compound] | 0.77
